# Test results from patent US20110183961A1, “AZETIDINE POLYSUBSTITUTED COMPOUNDS, PREPARATION THEREOF, AND THERAPEUTIC APPLICATION THEREOF” (SANOFI-AVENTIS, priority 2008, published 2011).
# pIC50: −log10 of the molar value.
# How the values were obtained:
# human CB1 receptor = target: T1, human CB1 receptor (Homo sapiens, UniProt P21554); assay: intracellular cyclic AMP functional test in U373MG cells (HTRF cAMP Dynamic Kit); type: cell-based; settings: U373MG cells naturally expressing the human CB1 receptor
# T1 construct: U373MG cells naturally expressing the human CB1 receptor; endogenous in cells; host or cells: U373MG cells
# T1 sequence (P21554 whole entry): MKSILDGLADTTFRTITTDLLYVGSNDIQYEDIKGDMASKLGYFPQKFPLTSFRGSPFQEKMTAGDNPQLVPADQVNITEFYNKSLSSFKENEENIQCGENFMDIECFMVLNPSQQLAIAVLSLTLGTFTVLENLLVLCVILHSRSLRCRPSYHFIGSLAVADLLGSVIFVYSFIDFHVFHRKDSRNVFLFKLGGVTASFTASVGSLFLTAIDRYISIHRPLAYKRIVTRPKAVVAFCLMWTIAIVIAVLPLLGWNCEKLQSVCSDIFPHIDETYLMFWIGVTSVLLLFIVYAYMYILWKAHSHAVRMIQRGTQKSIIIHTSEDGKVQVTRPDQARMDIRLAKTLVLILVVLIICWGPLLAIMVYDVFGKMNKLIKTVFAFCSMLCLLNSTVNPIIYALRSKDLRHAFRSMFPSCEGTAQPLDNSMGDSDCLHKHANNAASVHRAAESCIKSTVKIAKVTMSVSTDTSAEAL
# Experimental: The compounds according to the invention have been the subject of pharmacological assays which make it possible to determine the activity with respect to human CB1-type cannabinoid receptors. The effectiveness of the compounds of formula (I) was determined in a functional test in which the activity of the CB1 cannabinoid receptors is measured (intracellular cyclic AMP test). The test for detecting intracellular cyclic AMP in U373MG cells naturally expressing the human CB1 receptor was carried out as described in the reference: Bouaboula et al., 1995, J. Biol. Chem. 270:13973-13980. The HTRF cAMP Dynamic Kit from CisBio was used to quantify the intracellular cyclic AMP. In this test, the IC50 values are between 0.001 μM and 1 μM.
# CB1 cannabinoid receptor = target: T2, CB1 cannabinoid receptor (Mus musculus, UniProt P47746); assay: inhibition of gastrointestinal transit induced by racemic CP55,940 in mice (charcoal bolus); type: in vivo; settings: male CD1 mice, 3 hours after administration of the product, CP55,940 0.15 mg/kg ip
# T2 construct: male CD1 mice receive the test product per os; from tissue; host or cells: whole animal, male CD1 mice (gastrointestinal tract)
# T2 sequence (P47746 whole entry): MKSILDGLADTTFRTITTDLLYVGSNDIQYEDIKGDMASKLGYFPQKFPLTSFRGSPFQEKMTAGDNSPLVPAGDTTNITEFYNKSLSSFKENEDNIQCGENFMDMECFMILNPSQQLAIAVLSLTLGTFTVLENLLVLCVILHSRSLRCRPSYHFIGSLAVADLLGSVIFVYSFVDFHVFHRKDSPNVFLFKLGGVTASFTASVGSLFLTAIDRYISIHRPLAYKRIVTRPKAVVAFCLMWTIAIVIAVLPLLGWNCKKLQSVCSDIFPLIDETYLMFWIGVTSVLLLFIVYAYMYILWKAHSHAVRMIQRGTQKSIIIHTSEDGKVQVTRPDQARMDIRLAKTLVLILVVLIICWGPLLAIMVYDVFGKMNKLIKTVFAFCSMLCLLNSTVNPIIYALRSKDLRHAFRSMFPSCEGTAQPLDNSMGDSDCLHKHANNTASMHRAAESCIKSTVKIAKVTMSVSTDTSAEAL
# Experimental: Their antagonist activity was also shown by means of the model of inhibition of gastrointestinal transit induced by racemic CP55,940 (1RS, 3RS, 4RS)-3-[hydroxy-2-(1,1-dimethylheptyl)phenyl]-4-(3-hydroxypropyl)cyclohexan-1-ol) in mice, according to the method described by Rinaldi-Carmona et al., J. Pharmacol. Exp. Ther. 2004, 310, 905-914. Briefly, male CD1 mice receive the test product per os 30 minutes or 2 hours before administration of the racemic CP55,940 agonist ((1RS, 3RS, 4RS)-3-[hydroxy-2-(1,1-dimethylheptyl)phenyl]-4-(3-hydroxypropyl)cyclohexan-1-ol) (0.15 mg/kg ip in 10% cremophor). After a further 30 minutes, the animals receive a charcoal bolus po. Thirty minutes later, the animals are sacrificed by euthanasia (CO2/O2) and the intestine is dissected. The progression of the charcoal bolus in the intestine is expressed as percentage of the total length of the intestine.
SMILES,pIC50 (human CB1 receptor),melting point,other results
"CCN1CCCC1CNC(=O)c1cccc(N(C2CN(C(c3ccc(Cl)cc3)c3ccc(Cl)cc3)C2)S(C)(=O)=O)c1 (single isomer, unassigned; (+)) [Compound No. 6, (+)-3-[{1[bis(4-Chlorophenyl)methyl]azetidin-3-yl}(methyl-sulphonyl)amino]-N-{[1-ethylpyrrolidin-2-yl]methyl}benzamide]",–,122 °C,–
"CS(=O)(=O)N(c1cccc(C(=O)NC2CCS(=O)(=O)C2)c1)C1CN(C(c2ccc(Cl)cc2)c2ccc(Cl)cc2)C1 (centres unmarked) [Compound No. 2, 3-[{1-[bis(4-Chlorophenyl)methyl]azetidin-3-yl}(methylsulphonyl)amino]-N-(1,1-dioxidotetrahydrothiophen-3-yl)benzamide]",7.33,–,"percentage inhibition, gastrointestinal transit model (CB1 cannabinoid receptor; 2 mg/kg per os): 57%"
"CCN1CCCC1CNC(=O)c1cccc(N(C2CN(C(c3ccc(Cl)cc3)c3ccc(Cl)cc3)C2)S(C)(=O)=O)c1 (single isomer, unassigned; (-)) [Compound No. 5, (−)-3-[{1-[bis(4-Chlorophenyl)methyl]azetidin-3-yl}(methyl-sulphonyl)amino]-N-{[1-ethylpyrrolidin-2-yl]methyl}benzamide]",–,128 °C,"percentage inhibition, gastrointestinal transit model (CB1 cannabinoid receptor; 1 mg/kg per os): 39%"
"CS(=O)(=O)N(c1cc(F)cc(C(=O)NC2CCNC2=O)c1)C1CN(C(c2ccc(Cl)cc2)c2ccc(Cl)cc2)C1 (centres unmarked) [Compound No. 14, 3-[{1[bis(4-Chlorophenyl)methyl]azetidin-3-yl}(methyl-sulphonyl)amino]-5-fluoro-N-(2-oxopyrrolidin-3-yl)benzamide]",8.05,–,–

# The next lines start with results.
pIC50 (human CB1 receptor),melting point,SMILES,other results
8.15,–,"CS(=O)(=O)N(c1cc(F)cc(C(=O)NC2CCNC2=O)c1)C1CN(C(c2ccc(Cl)cc2)c2ccc(Cl)cc2)C1 (single isomer, unassigned; (-)) [Compound No. 16, (−)-3-[{1-[bis(4-Chlorophenyl)methyl]azetidin-3-yl}(methylsulphonyl)amino]-5-fluoro-N-[2-oxopyrrolidin-3-yl]benzamide]",–
–,210 °C,"CS(=O)(=O)N(c1cccc(C(=O)NC2CCSCC2)c1)C1CN(C(c2ccc(Cl)cc2)c2ccc(Cl)cc2)C1 [compound 10, 3-[{1-[bis(4-chlorophenyl)methyl]azetidin-3-yl}(methylsulphonyl)amino]-N-(tetrahydro-2H-thiopyran-4-yl)benzamide]",–
6.89,130 °C,"CS(=O)(=O)N(c1cccc(C(=O)NCCN2CCNC2=O)c1)C1CN(C(c2ccc(Cl)cc2)c2ccc(Cl)cc2)C1 [compound 9, 3-[{1-[bis(4-chlorophenyl)methyl]azetidin-3-yl}(methylsulphonyl)amino]-N-[2-(2-oxoimidazolidin-1-yl)ethyl]benzamide]",–
–,270 °C,"CS(=O)(=O)N(c1cccc(C(=O)NC2CCS(=O)(=O)CC2)c1)C1CN(C(c2ccc(Cl)cc2)c2ccc(Cl)cc2)C1 [compound 11, 3-[{1-[bis(4-chlorophenyl)methyl]azetidin-3-yl}(methylsulphonyl)amino]-N-(1,1-dioxidotetrahydro-2H-thiopyran-4-yl)benzamide]",–
